Consider two compounds from patent US7034070B2, “Arylalkyl aminofunctional silanes for epoxy laminates” (priority 2002, dated 2006).

This data set in a line: Water solubility test (aqueous solution clarity and stability). In kind it is physicochemical. The conditions noted are these: for time the solution stayed clear (before turning hazy): 1.0 gram in 100 ml distilled water with 1% glacial acetic acid, ambient temperatures; for time until the slightly hazy solution turned clear: 1.0 gram sample in 100 ml distilled water acidified with 1% glacial acetic acid, stirring. As to the method:
With stirring, 1.0 gram sample from Example 1 was added gradually to 100 ml of distilled water acidified with 1% glacial acetic acid. The solution was slightly hazy at the beginning but turned clear after 45 min. while the commercial product Z-6032 (Dow Coming) under similar conditions turned clear in 20 min.

As for `C=Cc1ccc(CNCCNCCC[Si](OC)(OC)OC)cc1.Cl` [Example Z-6032, CH2═CHC6H4CH2NH(CH2)2NH(CH2)3Si(OCH3)3•HCl], the “time the solution stayed clear (before turning hazy)” value is recorded as “less than 1 week” and the “time until the slightly hazy solution turned clear” value was found to be 20 min.
The like results for “CH3CH2C6H4CH2NH(CH2)2NH(CH2)3Si(OCH3)3•HCl [Example 1]” were, in that order, “more than two weeks” and 45 min.
